For data set [1], the system named is UBE2M mutant KBM7 cells. Nature of the data set: cells. It is filed as cell-based. Here is the method: KBM7 cells with the specified genetic backgrounds were grown in IMDM supplemented with 10% FBS and 1% penicillin/streptomycin (pen/strep). AsPC1, HCT116, NCI-H446 and 293T cells were grown in DMEM 10% FBS and 1% pen/strep. MV4; 11, Jurkat and Be (2) C cells were grown in RPMI 10% FBS 1% pen/strep. KBM7, AsPC1 and HCT116 cells expressing Cas9 were generated using the plasmid Lenti_Cas9_Blasti (Addgene #52962). The lentiviral plasmid lentiGuide-Puro (Addgene #52963) was used to express sgRNAs against the genes UBE2M (in KBM7-Cas9, AsPC1-Cas9 and HCT116-Cas9 cells), UBE2G1 (in KBM7-Cas9 cells) and […] (in KBM7-Cas9 cells). The lentiviral plasmid lentiGuide-Puro-IRES-mCherry (modified from Addgene #52963) was used to express sgRNAs against CUL4A (in KBM7-Cas9 cells). The lentiviral plasmid pLenti-PGK-Hygro-DEST-UBE2M was generated by Gateway cloning (empty destination vector Addgene #19066), and used to generate UBE2M^resc KBM7 cells. […]
Following this observation, it was rationalized that novel small molecule degraders can be identified in an unbiased manner, simply by searching for compounds that lose activity in the absence of UBE2M. 2000 small molecules, mostly of unknown function/target, were tested for their antiproliferative effects in human leukemia cells (KBM7). These cells were either transduced with a control sgRNA (KBM7WT), or with an sgRNA targeting UBE2M, leading to a hypomorph (deletion of six amino acids) with a functional impairment (UBE2Mmut).
Finally, a total of structurally similar analogs was tested to unravel structure-activity relationship of the identified molecules. To that end, their anti-cancer activity was assayed in WT cells, as well as KBM7 cells deficient in genes identified in the genome-wide CRISPR screens (UBE2M, CUL4B, UBE2G1). Moreover, the compounds were also tested in AsPC1 pancreatic cancer cells (WT or UBE2Mmut), MV4; 11 and Jurkat leukemia cells, Be (2) C neuroblastoma cells, and NCI-H446 lung cancer cells (Table 3 at the end of this document)
KBM7^WT, mutant KBM7 clones (UBE2M^mut, UBE2M^resc, UBE2G1^mut CUL4A^mut, CUL4B^mut), and 3-day doxycycline pretreated KBM7^iCas9_sgDDB1 cells were seeded at a cell density of 50,000 cells/mL in 96-well plates with DMSO or drug, in triplicates. Drugs used: IC020772.1/IC020772.1X, IC021313.2/IC021313.2X, T6938051/T6938051X or THZ531. Cells were treated for 3 days, after which cell viability was assessed according to manufacturer's protocol (CellTiter Glo, Promega G7570). Survival curves and EC50 values were calculated by best-fit analysis of the log 10 drug concentration to fold change of drug-treated cells over DMSO-treated cells. All survival assays included technical triplicates per sample, per experiment.

Data set [2] has as its system CDK12/13. The data set is described as follows: CDK12/13 destabilization (expression proteomics and Western blot). It is filed as cell-based, human. The note with it: KBM7 cells. As to the method:
(§1) The hypomorphic phenotype of the mutated UBE2M allele in KBM7 cells (KBM7 UBE2M^mut cells) was assessed. In this regard, CRISPR/Cas9-induced mutation of UBE2M inactivated CRL activity including CRL4^CRBN and CRL2^VHL. […] Additionally, CCNK destabilization by all three compounds was validated via time-resolved immunoblots wherein CCNK degradation was evident after two hours (FIG. 19c).
(§2) PBS-washed cell pellets were lysed in 50 mM Tris pH 7.9, 8M Urea and 1% CHAPS and incubated with shaking at 4° C. for at least 30 min. 20 μg of supernatants were run and transferred for detection. Antibodies used: CUL1 (Santa Cruz Biotechnology, sc-1276), CUL2 (Sigma-Aldrich, SAB2501565-100), CUL3 (Cell Signaling Technology, 2759), CUL4A (Cell Signaling Technology, 2699S), CUL4B (Proteintech, 12916-1-AP), CUL5 (Santa Cruz Biotechnology, sc-373822), UBE2M (Santa Cruz Biotechnology, sc-390064), DDB1 (Cell Signaling Technology, 5428S), CCNK (Bethyl, A301-939A), CDK12 (Cell Signaling Technology, 11973S), CDK13 (Bethyl, A301-458A), RBM39 (1:500, Santa Cruz Biotechnology sc-376531), V5 (Cell Signaling Technology, 13202), Ubiquityl-Histone H2A (K119) (Cell Signaling, 8240-20). ACTIN (Sigma-Aldrich, A5441), VINCUL1N (Santa Cruz Biotechnology, sc-25336). Secondary antibodies anti-mouse/rabbit/goat (Jackson ImmunoResearch 115-035-003, 111-035-003 and 705-035-003).
(§3) Comparison of overall proteome-wide changes in KBM7 cells treated with IC020772.1 (2.5 μM), IC021313.2 (7 μM) or T6938051 (3.5 μM) for 5 h and 12h, using quantitative proteomics based on isobaric tagging.

Data set [3] relates to T1, cyclin K (CCNK) (Homo sapiens).
T1 construct: endogenous in cells; host or cells: KBM7 cells (WT and UBE2M/CUL4B/UBE2G1 mutant clones)
The data set is described as follows: CCNK destabilization/degradation (expression proteomics and Western blot). It is filed as cell-based. The note with it: wild-type KBM7 cells. As to the method:
as §1
(§4) Subsequently, a total of 53 structurally related analogue compounds in dose-ranging viability assays in KBM7 wildtype- and UBE2M^mut cells was tested to develop a structure-activity relationship for the assayed compounds. This informed on sites amenable for derivatization of analogs (FIG. 20a), and also to the identification of structurally similar small molecules with no measurable activity that are thus suited negative controls. […] CRL activity-dependent degradation of CCNK could be rescued by pharmacologic NAE inhibition and by blocking the ubiquitin activating enzyme UBA1, particularly by pretreating the cells with 1 μM carfilzomib (Selleckchem, S2853), 1 μM MLN4924 (Selleckchem, S7109), 10 μM TAK-243 (MedChemExpress, HY-100487) or 1 μM THZ531 (MedChemExpress HY-103618) (FIG. 19d). Furthermore, treatment with the selective covalent CDK12/13 inhibitor THZ531, which binds to the ATP binding pocket of CDK12/13, rescued CCNK degradation (FIG. 19d) indicating the role of the active site of CDK12/13 for CRL activity-dependent CCNK degradation by the identified compounds (FIG. 19d).
as §2, §3
In general terms: A western blot detects proteins with antibodies after separation by electrophoresis.

The target of data set [4] is T2, cyclin K (CCNK) (Homo sapiens, UniProt Q16531+Q9NYV4).
T2 construct: endogenous in cells; host or cells: KBM7 cells (WT and UBE2M/CUL4B/UBE2G1 mutant clones)
The data set is described as above. It counts as cell-based. The note with it: for effect on CCNK upon inactivation of DDB1, UBE2G1 and UBE2M: CRISPR-inactivated KBM7 cells. Here is the method: as §1, §4, §2, §3

T1 sequence (O75909 whole entry partner): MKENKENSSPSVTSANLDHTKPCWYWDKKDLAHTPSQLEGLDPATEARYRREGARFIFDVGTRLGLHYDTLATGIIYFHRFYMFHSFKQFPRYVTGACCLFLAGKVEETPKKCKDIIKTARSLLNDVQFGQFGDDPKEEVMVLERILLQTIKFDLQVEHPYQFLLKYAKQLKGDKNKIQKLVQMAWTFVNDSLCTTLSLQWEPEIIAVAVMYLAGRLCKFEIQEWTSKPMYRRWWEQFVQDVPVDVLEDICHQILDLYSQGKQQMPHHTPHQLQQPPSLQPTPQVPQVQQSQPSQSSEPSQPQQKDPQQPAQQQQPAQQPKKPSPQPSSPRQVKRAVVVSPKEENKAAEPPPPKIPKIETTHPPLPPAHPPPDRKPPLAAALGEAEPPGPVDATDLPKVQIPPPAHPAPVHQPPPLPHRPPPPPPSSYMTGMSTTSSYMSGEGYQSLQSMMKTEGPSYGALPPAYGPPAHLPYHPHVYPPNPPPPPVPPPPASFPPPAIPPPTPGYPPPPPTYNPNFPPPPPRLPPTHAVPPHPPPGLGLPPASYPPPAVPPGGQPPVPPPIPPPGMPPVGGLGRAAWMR
T1 sequence (Q9NYV4 whole entry, further chain): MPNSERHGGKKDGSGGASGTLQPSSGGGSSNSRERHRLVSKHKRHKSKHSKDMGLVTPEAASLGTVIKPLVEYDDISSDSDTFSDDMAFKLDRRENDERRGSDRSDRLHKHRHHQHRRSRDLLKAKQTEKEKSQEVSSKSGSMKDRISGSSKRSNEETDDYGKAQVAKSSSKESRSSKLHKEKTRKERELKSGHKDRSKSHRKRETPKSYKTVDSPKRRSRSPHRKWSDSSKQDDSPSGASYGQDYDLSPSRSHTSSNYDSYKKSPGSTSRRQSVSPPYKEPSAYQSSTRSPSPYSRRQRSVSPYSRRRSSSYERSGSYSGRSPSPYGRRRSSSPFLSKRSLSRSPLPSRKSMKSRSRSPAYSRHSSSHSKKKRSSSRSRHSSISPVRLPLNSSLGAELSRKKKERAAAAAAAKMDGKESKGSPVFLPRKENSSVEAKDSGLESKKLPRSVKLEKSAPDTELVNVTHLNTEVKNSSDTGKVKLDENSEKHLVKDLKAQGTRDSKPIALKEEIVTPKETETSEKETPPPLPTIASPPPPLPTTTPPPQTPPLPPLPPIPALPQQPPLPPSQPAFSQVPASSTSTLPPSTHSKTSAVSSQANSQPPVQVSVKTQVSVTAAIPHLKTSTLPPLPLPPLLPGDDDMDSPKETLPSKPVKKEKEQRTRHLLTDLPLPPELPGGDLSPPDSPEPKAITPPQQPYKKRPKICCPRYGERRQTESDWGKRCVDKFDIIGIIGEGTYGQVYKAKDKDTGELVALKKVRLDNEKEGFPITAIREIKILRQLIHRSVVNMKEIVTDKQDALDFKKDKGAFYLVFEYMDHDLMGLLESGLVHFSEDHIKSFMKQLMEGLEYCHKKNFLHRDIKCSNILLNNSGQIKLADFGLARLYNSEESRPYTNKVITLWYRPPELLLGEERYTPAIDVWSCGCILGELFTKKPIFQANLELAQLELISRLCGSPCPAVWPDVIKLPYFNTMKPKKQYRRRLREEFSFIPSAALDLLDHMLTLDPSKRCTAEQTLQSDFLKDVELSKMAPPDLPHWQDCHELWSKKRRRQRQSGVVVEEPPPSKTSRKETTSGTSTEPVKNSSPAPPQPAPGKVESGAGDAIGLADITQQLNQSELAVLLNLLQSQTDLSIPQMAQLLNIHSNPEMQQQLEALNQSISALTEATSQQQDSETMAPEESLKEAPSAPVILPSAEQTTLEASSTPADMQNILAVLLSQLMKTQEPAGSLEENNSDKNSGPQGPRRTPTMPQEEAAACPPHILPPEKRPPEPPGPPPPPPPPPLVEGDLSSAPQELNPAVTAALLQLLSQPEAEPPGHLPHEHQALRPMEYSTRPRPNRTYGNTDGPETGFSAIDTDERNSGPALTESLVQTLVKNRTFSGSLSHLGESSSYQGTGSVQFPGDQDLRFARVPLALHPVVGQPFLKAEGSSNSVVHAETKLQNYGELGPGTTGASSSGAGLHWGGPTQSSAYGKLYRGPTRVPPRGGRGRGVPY
T1 sequence (Q16531 2-1140 limits assumed, further chain): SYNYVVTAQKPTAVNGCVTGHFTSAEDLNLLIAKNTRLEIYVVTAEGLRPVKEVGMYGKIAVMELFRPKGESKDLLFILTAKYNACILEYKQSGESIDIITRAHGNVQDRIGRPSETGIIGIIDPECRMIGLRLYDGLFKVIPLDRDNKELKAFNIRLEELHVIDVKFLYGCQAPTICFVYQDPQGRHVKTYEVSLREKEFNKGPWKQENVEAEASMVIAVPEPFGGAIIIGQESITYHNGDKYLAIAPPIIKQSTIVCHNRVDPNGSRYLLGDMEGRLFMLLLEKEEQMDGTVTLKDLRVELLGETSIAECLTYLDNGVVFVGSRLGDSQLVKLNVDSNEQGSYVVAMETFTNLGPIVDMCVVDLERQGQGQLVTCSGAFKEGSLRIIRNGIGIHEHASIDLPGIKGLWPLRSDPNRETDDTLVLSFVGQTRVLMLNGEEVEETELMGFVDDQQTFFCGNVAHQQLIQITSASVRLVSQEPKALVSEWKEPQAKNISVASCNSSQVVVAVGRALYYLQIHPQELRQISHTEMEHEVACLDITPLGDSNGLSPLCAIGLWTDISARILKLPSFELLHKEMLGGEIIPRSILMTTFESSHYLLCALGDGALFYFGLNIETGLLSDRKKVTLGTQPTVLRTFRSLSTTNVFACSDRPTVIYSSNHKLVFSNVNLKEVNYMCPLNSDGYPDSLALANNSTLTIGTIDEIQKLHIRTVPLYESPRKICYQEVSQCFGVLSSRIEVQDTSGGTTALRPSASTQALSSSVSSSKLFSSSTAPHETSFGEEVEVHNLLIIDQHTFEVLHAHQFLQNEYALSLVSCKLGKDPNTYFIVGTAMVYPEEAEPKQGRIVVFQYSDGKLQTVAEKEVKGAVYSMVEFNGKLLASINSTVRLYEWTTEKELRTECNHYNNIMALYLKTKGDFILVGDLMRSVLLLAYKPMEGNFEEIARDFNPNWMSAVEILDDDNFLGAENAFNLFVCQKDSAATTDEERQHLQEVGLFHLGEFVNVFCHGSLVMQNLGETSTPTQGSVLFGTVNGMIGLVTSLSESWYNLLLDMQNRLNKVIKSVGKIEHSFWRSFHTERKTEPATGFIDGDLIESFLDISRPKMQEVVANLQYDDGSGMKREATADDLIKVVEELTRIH
T1 sequence (Q13620 whole entry partner): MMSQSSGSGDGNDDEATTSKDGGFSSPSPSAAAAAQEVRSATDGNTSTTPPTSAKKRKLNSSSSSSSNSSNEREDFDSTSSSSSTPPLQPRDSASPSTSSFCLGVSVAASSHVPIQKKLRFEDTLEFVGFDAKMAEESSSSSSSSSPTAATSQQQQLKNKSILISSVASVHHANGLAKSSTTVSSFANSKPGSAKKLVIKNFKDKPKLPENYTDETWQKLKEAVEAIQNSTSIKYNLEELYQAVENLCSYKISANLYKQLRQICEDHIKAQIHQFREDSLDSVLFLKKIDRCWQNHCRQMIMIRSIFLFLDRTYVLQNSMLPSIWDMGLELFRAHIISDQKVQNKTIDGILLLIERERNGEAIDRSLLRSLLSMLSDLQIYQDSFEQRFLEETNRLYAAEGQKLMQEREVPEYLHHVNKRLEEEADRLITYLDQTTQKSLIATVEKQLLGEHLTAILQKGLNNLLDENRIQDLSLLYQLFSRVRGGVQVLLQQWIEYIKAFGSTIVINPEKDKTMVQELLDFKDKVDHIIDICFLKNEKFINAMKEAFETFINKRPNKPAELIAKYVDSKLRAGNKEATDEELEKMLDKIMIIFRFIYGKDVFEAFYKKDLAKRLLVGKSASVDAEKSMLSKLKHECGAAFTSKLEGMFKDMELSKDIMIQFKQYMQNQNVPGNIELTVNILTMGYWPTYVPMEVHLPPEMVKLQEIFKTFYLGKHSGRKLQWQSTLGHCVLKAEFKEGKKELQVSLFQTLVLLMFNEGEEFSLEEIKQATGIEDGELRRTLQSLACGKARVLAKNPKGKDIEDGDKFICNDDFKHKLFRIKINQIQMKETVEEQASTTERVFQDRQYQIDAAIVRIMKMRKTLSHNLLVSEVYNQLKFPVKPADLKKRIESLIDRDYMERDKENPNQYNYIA
T1 sequence (P62877 whole entry partner): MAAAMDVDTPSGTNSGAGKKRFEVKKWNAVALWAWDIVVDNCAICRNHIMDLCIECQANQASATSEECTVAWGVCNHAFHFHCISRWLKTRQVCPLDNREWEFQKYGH
T2 sequence (O75909 whole entry partner): as the sequence (O75909 whole entry partner) above
T2 sequence (Q9NYV4 whole entry): as the sequence (Q9NYV4 whole entry, further chain) above
T2 sequence (Q16531 2-1140 limits assumed): as the sequence (Q16531 2-1140 limits assumed, further chain) above
T2 sequence (Q13620 whole entry partner): as the sequence (Q13620 whole entry partner) above
T2 sequence (P62877 whole entry partner): as the sequence (P62877 whole entry partner) above

`Cc1ccc(C(=O)N2CSCC2C(=O)N=c2[nH]cc(C)s2)o1` (stereo not shown) [Compound T6938051]: in data set [1], the CC50 is 7.04 µM. For the same molecule, in data set [2], the CDK12/13 destabilization result was “milder CDK12/13 destabilization”. The CCNK destabilization result in data set [3] was “destabilization of cyclin K (CCNK)”. Further, the “effect on CCNK upon inactivation of DDB1, UBE2G1 and UBE2M” value (shortened to “effect on CCNK upon inactivation of DDB1”) in data set [4] was “abrogated”.

`O=C(CSc1nnc2c(n1)[nH]c1ccccc12)Nc1ccc(Cl)cn1` [IC020772.1] showed a CC50 in data set [1] of 4.15 µM. The CDK12/13 destabilization entry in data set [2] is “milder CDK12/13 destabilization”. The CCNK destabilization entry in data set [3] is listed as “destabilization of cyclin K (CCNK)”. Besides, the “effect on CCNK upon inactivation of DDB1” value in data set [4] was “abrogated”.

Turning to `O=C(CSc1nc2ccccc2[nH]1)Nc1ccc(Cl)cn1` [IC021313.2], in data set [1], the CC50 was 10.7 µM. Further, the CDK12/13 destabilization entry in data set [2] was “milder CDK12/13 destabilization”. In data set [3], the CCNK destabilization result is given as “destabilization of cyclin K (CCNK)”. In data set [4], the “effect on CCNK upon inactivation of DDB1” value is reported as “abrogated”. Further, the “logFC (IC021313.2/DMSO), CCNK (O75909-3)” value in data set [4] (expression proteomics, drug vs DMSO, Table 4, log2FC < −0.3) is −0.873.

The term CC50 denotes the concentration giving 50% cytotoxicity. Low readings indicate harm at low concentration, high ones better tolerance by the cells.
